Reference: patent US7897625B2, “Carbamoylbenzotriazole derivatives as inhibitors of lipases and phospholipases” (Sanofi-Aventis, priority 2005, dated 2011)

Target: T1, Endothelial lipase (Homo sapiens, UniProt Q9Y5X9)
T1 construct: made in house; host or cells: CHO, HEK293 (recombinant cell lines; concentrated conditioned medium used as enzyme solution)
T1 sequence (Q9Y5X9 21-500): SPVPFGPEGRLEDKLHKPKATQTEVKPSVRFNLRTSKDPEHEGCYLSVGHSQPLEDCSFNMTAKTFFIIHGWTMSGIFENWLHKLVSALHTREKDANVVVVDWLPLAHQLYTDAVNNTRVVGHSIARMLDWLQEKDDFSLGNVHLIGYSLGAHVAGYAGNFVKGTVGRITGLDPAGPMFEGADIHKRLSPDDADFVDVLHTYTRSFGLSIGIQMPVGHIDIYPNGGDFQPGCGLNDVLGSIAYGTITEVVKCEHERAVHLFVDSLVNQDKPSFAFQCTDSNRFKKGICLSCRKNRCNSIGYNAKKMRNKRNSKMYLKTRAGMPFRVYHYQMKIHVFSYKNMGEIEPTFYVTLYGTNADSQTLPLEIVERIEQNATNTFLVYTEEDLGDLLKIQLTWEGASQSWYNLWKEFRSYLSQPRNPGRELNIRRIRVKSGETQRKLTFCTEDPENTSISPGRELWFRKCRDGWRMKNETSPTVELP
Experiment: EL inhibition assay
Type: biochemical
Details: values marked * are IC50 values of a mixture of the indicated regioisomers; 37° C., 60 minutes, Bodipy phospholipid substrate
Procedure: The activity of the compounds of the invention of the formula I was tested in the following enzyme assay system: […]
Endothelial lipase is released as secretory protein in high concentration into cell culture medium (conditioned medium) by recombinant cell lines (CHO, HEK293). This is employed as enzyme solution after concentration.
The phospholipase-specific substrate 1,2-bis(4,4-difluoro-5,7-dimethyl-4-bora-3a,4a-diaza-s-indacene-3-undecanoyl)-sn-glycero-3-phosphocholine, (manufacturer Molecular Probes) is used to characterize the enzymatic activity of endothelial lipase and the effect of inhibitors. Hydrolysis of the A1 ester linkage of this phospholipid by the enzyme liberates the fluorescent dye Bodipy which can be detected after separation by thin-layer chromatography on an HPTLC plate (silica gel 60, Merck) or directly in the reaction vessel by measuring the fluorescence.
The substrate solution is prepared by taking up 100 μg of 1,2-bis(4,4-difluoro-5,7-dimethyl-4-bora-3a,4a-diaza-s-indacene-3-undecanoyl)-sn-glycero-3-phospho-choline (manufacturer Molecular Probes), 2.4 mg of tripalmitin (Sigma) and 7.9 mg of DOP—choline (1,2-dioleoyl-sn-glycero-3-phosphocholine) in 393 μl of chloroform and then transferring 157 μl into a fresh reaction vessel. After evaporation of the solvent, the lipid mixture is dissolved in 4 ml of 200 mM TRIS-HCl, 150 mM sodium chloride, pH=7.4, by sonication twice. The subsequent enzymic reaction takes place at 37° C. for 60 minutes. For this purpose, 45 μl of the substrate solution are incubated with 1 μl of inhibitor of appropriate concentration (dissolved in DMSO, pure DMSO solution is used as control) and 5 μl of enzyme solution (conditioned medium). Then 3 μl of the assay mixture are loaded onto an HPTLC plate (silica gel 60, Merck), and the liberated fluorescent dye is separated for detection with an eluent (diethyl ether:petroleum benzene:acetic acid [78:22:1]). After evaporation of the eluent, the plate is read in a fluorescence scanner. An increased release of the fluorescent dye in the uninhibited reaction is to be observed as a measure of the enzymic activity.
The enzymatic activity is reduced as a function of the inhibitor concentration used, and the inhibitor concentration at which a half-maximum enzymic activity is observed is called IC50.

SMILES	IC50 [nM]
C[C@H](NC(=O)n1nnc2ccccc21)c1ccccc1 [Example 36]	710
N#Cc1ccc2sc(CNC(=O)n3nnc4ccccc43)cc2c1 [Example 10]	510
Cc1ccsc1CNC(=O)n1nnc2ccccc21 [Example 9]	80
C[C@@H](NC(=O)n1nnc2ccccc21)c1ccccc1 [Example 23]	31
Cc1cccc(CNC(=O)n2nnc3ccccc32)c1 [Example 1]	20
O=C(NCc1ccc(Cl)cc1)n1nnc2ccccc21 [Example 28]	440
O=C(NCc1ccc(-c2cccs2)s1)n1nnc2ccccc21 [Example 15]	520
